SMILES strings stand for the structures.

Here are results for 15 compounds from BindingDB's records for doi:10.1021/jm00144a025 (1982).

For experiment [1], the target named is serotonin transporter (Mus musculus). As to the kind of experiment: In vitro inhibition of accumulation of [14C]5-HT (5-HT) in mouse brain slices.
Experiment [2] addresses norepinephrine transporter (Mus musculus). As to the kind of experiment: In vitro inhibition of accumulation of (-)-[3H]Norepinephrine (NA) in mouse brain slices.

For `CN(C)C/C=C(/c1ccccc1)c1cccnc1` [cis -Dimethyl-(3-phenyl-3-pyridin-3-yl-allyl)-amine;1.5C2H4O4], the IC50 in experiment [1] turned out to be 3700 nM; in experiment [2], 27 µM.
As for `Cc1ccc(/C(=C/CN(C)C)c2cccnc2)cc1` [cis -Dimethyl-(3-pyridin-3-yl-3-p-tolyl-allyl)-amine;C2H4O4], the IC50 is 2400 nM in experiment [1] and over 29 µM in experiment [2].
Take `CN(C)C/C=C(/c1ccc(C(F)(F)F)cc1)c1cccnc1` [cis -Dimethyl-[3-pyridin-3-yl-3-(4-trifluoromethyl-phenyl)-allyl]-amine;C2H4O4]: the IC50 in experiment [1] was determined as 2000 nM; in experiment [2], 13 µM.
`CNC/C=C(\c1cccnc1)c1ccc(Cl)cc1Cl` [cis-[3-(2,4-Dichloro-phenyl)-3-pyridin-3-yl-allyl]-methyl-amine;C2H4O4]: the figures for the IC50 in experiment [1] and in experiment [2] were 500 nM and 2.3 µM, respectively.
For the compound `CN(C)C/C=C(\c1cccnc1)c1ccccc1Br` [cis-[3-(2-Bromo-phenyl)-3-pyridin-3-yl-allyl]-dimethyl-amine;C2H4O4], the values for the IC50 in experiment [1] and in experiment [2] were 4200 nM and 2.2 µM, respectively.
On the same counts, the results for `CNC/C=C(\c1cccnc1)c1ccccc1Br` [cis-[3-(2-Bromo-phenyl)-3-pyridin-3-yl-allyl]-methyl-amine;C2H4O4] are 600 nM and 0.3 µM.
The corresponding values for `CNC/C=C(\c1cccnc1)c1cccc(Br)c1` [cis-[3-(3-Bromo-phenyl)-3-pyridin-3-yl-allyl]-methyl-amine;C2H4O4] are 1400 nM and 0.9 µM.
For `CN(C)C/C=C(\c1cccnc1)c1cccc(Cl)c1` [cis-[3-(3-Chloro-phenyl)-3-pyridin-3-yl-allyl]-dimethyl-amine;C2H4O4], the results for the IC50 in experiment [1] and in experiment [2] were 2600 nM and 11 µM, respectively.
Turning to `CN(C)C/C=C(\c1cccnc1)c1cccc(F)c1` [cis-[3-(3-Fluoro-phenyl)-3-pyridin-3-yl-allyl]-dimethyl-amine;C2H4O4], the IC50 in experiment [1] was found to be 1600 nM; in experiment [2] it was 2.2 µM.
Turning to `CCNC/C=C(/c1ccc(Br)cc1)c1cccnc1` [cis-[3-(4-Bromo-phenyl)-3-pyridin-3-yl-allyl]-ethyl-amine;C2H4O4], the IC50 in experiment [1] was 2000 nM; in experiment [2] it was 26 µM.
For the compound `CCCNC/C=C(/c1ccc(Br)cc1)c1cccnc1` [cis-[3-(4-Bromo-phenyl)-3-pyridin-3-yl-allyl]-propyl-amine;C2H4O4], the IC50 in experiment [1] was 24000 nM; in experiment [2] it was over 24 µM.
On to `CN(C)C/C=C(/c1ccc(Cl)cc1)c1cccnc1` [cis-[3-(4-Chloro-phenyl)-3-pyridin-3-yl-allyl]-dimethyl-amine;C2H4O4], for which the IC50 in experiment [1] stood at 2100 nM; in experiment [2] it was 10 µM.
For `CN(C)C/C=C(/c1ccc(I)cc1)c1cccnc1` [cis-[3-(4-Iodo-phenyl)-3-pyridin-3-yl-allyl]-dimethyl-amine;C2H4O4], the IC50 in experiment [1] was 1000 nM; in experiment [2], over 22 µM.
`CC(C)Oc1ccc(/C(=C/CN(C)C)c2ccncc2)cc1` [cis-[3-(4-Isopropoxy-phenyl)-3-pyridin-4-yl-allyl]-dimethyl-amine;C2H4O4]: the IC50 in experiment [1] was 3500 nM; in experiment [2] it was 34 µM.
On the same counts, the results for `COc1ccc(/C(=C/CN(C)C)c2cccnc2)cc1` [cis-[3-(4-Methoxy-phenyl)-3-pyridin-3-yl-allyl]-dimethyl-amine;C2H4O4] are 800 nM and over 28 µM.
